Where a name gives a salt, the structure may show the parent alone.
Assays:
Format in all cases: in vivo
[1] = system: Vav2/3^ko mouse; assay: Intraocular pressure after Y-27632 eye drop, Test Example 3; conditions: 7-week old Vav2/3^ko; 3 μL of 1 mM/PBS solution to eye; one hour after administration
Experimental: (§1) For No. 20 of each of the 7-week old Vav2/3^ko, Vav2^ko and Vav3^ko, intraocular pressure was measured between 10 o'clock in the morning and noon by using a Tonometer and then 3 μL of 1 mM/PBS solution of Y-27632 (Calbiochem), which is an inhibitor for Rho-associated protein kinase and has been reported to have an activity of reducing intraocular pressure by acting on an outflow tract for aqueous humor, or 3 μL of PBS solution was applied to an eye. One hour after the administration, the intraocular pressure was measured again.

[2] = system: Vav2^ko mouse; assay: as above; conditions: 7-week old Vav2^ko; 3 μL of 1 mM/PBS solution to eye; one hour after administration
Experimental: as §1

[3] = system: Vav3^ko mouse; assay: as above; conditions: 7-week old Vav3^ko; 3 μL of 1 mM/PBS solution to eye; one hour after administration
Experimental: as §1

[4] = system: Vav2/3^ko mouse; assay: Intraocular pressure after eye-drop administration, Example 5; conditions: for Ratio of effect on intraocular pressure: Vav2/3^ko
Experimental: (§2) For the No. 20 animal of each of the 7-week old Vav2/3^ko and Vav2^ko, intraocular pressure was measured between 10 o'clock in the morning and noon by using a Tonometer. Then, 3 μL solution containing 0.02% benzalkonium chloride, 0.5% NaH2PO4, 0.6% Na2HPO4, 0.4% sodium chloride and 0.005% Latanoprost (manufactured by Cayman Chemical), or solution having the same composition except that no latanoplast was contained was applied to an eye of the animal based on a blind testing method. Three hours later, the intraocular pressure was measured again. In addition, to Vav2/3^ko, 3 μL eye-drop solution containing timolol maleate (Trade name; Timoptol, Merck Company, USA, 0.5% solution), or 3 μL eye-drop solution containing dorzolamide hydrochloride (Trade name; Trusopt, Merck Company, USA, 1% solution), both having a different mechanism for reducing intraocular pressure compared to latanoprost, was applied instead of the solution containing latanoprost as described above. Two hours after the application, change in the intraocular pressure was measured.

[5] = system: Vav2/3^ko mouse; assay: Intraocular pressure after latanoprost eye drop, Example 4; conditions: 8- to 9-week old Vav2/3^ko mouse; 3 μL 0.01%/PBS applied; three hours later; vs PBS control
Experimental: For the 8- to 9-week old Vav2/3^ko mouse (No. 12), intraocular pressure was measured between 10 o'clock in the morning and noon by using a Tonometer. Then, 3 μL of latanoplast (0.01%/PBS, manufactured by Cayman Chemical) of a prostaglandin derivative as a therapeutic agent for glaucoma was applied and the intraocular pressure was measured again three hours later. As a control, a group administered only with PBS was prepared at the same time, and analysis was carried out based on Student's t-test (P<0.05). […] Therefore, it was confirmed that the mouse of the present invention is a useful model for evaluation of a therapeutic agent for glaucoma.

[6] = system: Vav2^ko mouse; assay: Intraocular pressure after eye-drop administration, Example 5; conditions: 7-week old Vav2^ko
Experimental: as §2

[7] = 3 μL eye-drop solution (timolol maleate 0.5%, dorzolamide hydrochloride 1%), two hours after application

For `C[C@@H](N)[C@H]1CC[C@H](C(=O)Nc2ccncc2)CC1` [Y-27632], the “activity of reducing the intraocular pressure” value [1] was “did not show any activity of reducing the intraocular pressure”, the “activity of reducing the intraocular pressure” value [2] was “did not show any activity of reducing the intraocular pressure” and the “activity of reducing the intraocular pressure” value [3] was “did not show any activity of reducing the intraocular pressure”.

`CCN[C@H]1C[C@H](C)S(=O)(=O)c2sc(S(N)(=O)=O)cc21` [dorzolamide hydrochloride] was tested, and the “Ratio of effect on intraocular pressure” value [4, 7] was 20%.

In the case of `CC(C)OC(=O)CCC/C=C\C[C@@H]1[C@@H](CC[C@@H](O)CCc2ccccc2)[C@H](O)C[C@@H]1O` [latanoprost], the intraocular pressure change [5] was “reduced”, the “intraocular pressure three hours after administration” value ([4]; 7-week old Vav2/3^ko, 3 μL 0.005% solution to eye, three hours later, P<0.01) was 15.8±5.1 mmHg and the “intraocular pressure twenty four hours after eye drop administration” value ([4]; 7-week old Vav2/3^ko, 3 μL 0.005% solution, twenty four hours after) was “came back to the high value which is the same as the one before the eye drop administration”. The “intraocular pressure before administration” value ([4]; 7-week old Vav2/3^ko, before eye drop of 3 μL 0.005% solution) was 26.3±5.0 mmHg, the “Ratio of effect on intraocular pressure” value ([4]; 3 μL 0.005% latanoprost solution, three hours later) was “about 40%” and the “intraocular pressure three hours after administration” value ([6]; 3 μL 0.005% solution to eye, three hours later, P<0.01) was 14.5 mmHg. For the same molecule, the “intraocular pressure before administration” value ([6]; before eye drop of 3 μL 0.005% solution) was 17.4 mmHg.

With `CC(C)(C)NC[C@H](O)COc1nsnc1N1CCOCC1` [timolol maleate] the “Ratio of effect on intraocular pressure” value [4, 7] was 15%.
